The values below come from paper PMC10635799, “Analogs of FTY720 inhibit TRPM7 but not S1PRs and exert multimodal anti-inflammatory effects” (The Journal of General Physiology, 2023).

The structures appear in SMILES notation. Read-outs that look alike come from different tables or passages of the source.

The nature of data set [1]: Whole-blood, brain and lung drug levels by LC-MS/MS in the sublethal LPS peritonitis model. In kind it is in vivo. Conditions: for Kp at 4 h / concentration at 4 h: both sexes, C57BL/6J, mouse, intraperitoneal. As to the method:
12-wk-old WT C57BL/6J mice were purchased from Jackson Laboratory (Strain #000664). An equal number of male and female mice were randomly assigned to each treatment group. All studies were conducted according to a protocol approved by the University of Virginia Animal Care and Use Committee. Mice were socially housed with littermate controls and provided with free access to a standard chow diet and water. Baseline weights were taken <1 h prior to the experiment for individual dose calculations. For the sublethal model, mice were injected intraperitoneally with LPS (1 mg/kg), VPC01091.4 (30 mg/kg), both LPS and VPC01091.4, or vehicle alone (20% 2-hydroxypropyl-β-cyclodextrin in PBS). The volume injected was 200 μl and solutions were sterile-filtered (0.45 µm) prior to use. […] Mice were euthanized at 4 h, then blood was collected via cardiac puncture and anticoagulated with K2EDTA. […] The lungs were dissected, coarsely homogenized, and partitioned into separate samples for RNA extraction and mass spectrometry analysis. Samples to be used for RNA were stored at −20°C in RNAlater Stabilization Solution (AM7021; Thermo Fisher Scientific) while samples for use in mass spectrometry were flash-frozen in liquid nitrogen. Whole brains were physically dissected, coarsely homogenized, and stored for later processing as with the lung tissue. 10 μl of each whole blood sample was reserved for mass spectrometry analysis, 15 μl was used to obtain lymphocyte counts with a Hematology Analyzer (Heska Element HT5), and the remainder was used to produce plasma through centrifugation at 2,000 × g for 15 min at 4°C. Plasma cytokines were then measured using a multiplex mouse proinflammatory cytokine panel performed by the University of Virginia Flow Cytometry Core (RRID: SCR_017829). Cytokine values beyond the limit of detection (LOD) are reported as the LOD value. Tissue RNA was isolated from preserved samples using 30 min of automated homogenization at 30 Hz with 5-mm ball-bearings in RLT Plus Lysis Buffer (TissueLyser II; Qiagen); RNA was then isolated using a RNeasy Plus Micro Kit (74134; Qiagen). Whole-tissue cytokine expression changes were then measured using qRT-PCR as with ex vivo cell culture experiments. For the lethal dose model, mice were injected with LPS (25 mg/kg), both LPS and VPC01091.4, or vehicle alone (20% 2-hydroxypropyl-β-cyclodextrin in PBS). Symptoms were scored according to a standardized clinical score sheet that assessed conjunctivitis, lethargy, degradation in hair grooming behavior, stool changes, and facial grimace (Table 1). Mice that lost >20% of their starting body weight or received a clinical score of 8 or greater were euthanized.
The sample preparation method was adapted from that published by [Shaner et al. (2009)]. Specifically, homogenized tissue (100 μl) was added to a mixture of methanol and chloroform (2 ml, 3:1, LCMS grade) and incubated at 48°C for 16 h. The mixture was cooled to room temperature, an alcoholic KOH solution (200 μl, 1 M in LCMS-grade methanol) was added, and the mixture was further incubated at 37°C for 2 h. The samples were neutralized with glacial acetic acid (20 μl) and centrifuged at 4°C for 10 min at 10,000 × g. The supernatant fluid was transferred to a glass vial and dried under a stream of nitrogen. The material was dissolved in LCMS grade methanol (500 μl), vortexed, and centrifuged at 4°C for 10 min at 10,000 × g. The supernatant fluid was transferred to LC vials for analysis by LC-MS/MS.
Analyses were performed using a tandem quadrupole mass spectrometer (Xevo TQ-S micro; Waters) coupled to a UPLC (Waters Acquity h-class+) inlet equipped with a reverse phase C18 UPLC column (BEH C-18 1.7 µm bead size, 2.1 × 50 mm; Waters). The method used is a modification of that published by [Frej et al. (2015)]. Specifically, the LC flow rate was set at 0.4 ml/min and the column temperature was 60°C. […]

The next data set relates to lymphocytes. Details: method as in Brinkmann et al., 2002; Zhu et al., 2007. To be noted: ref Brinkmann et al., 2002; Zhu et al., 2007; cited from earlier work.

Take `CCCCCCCCc1ccc([C@@H]2CC[C@@](N)(CO)C2)cc1` [VPC01091.4, ((1S,3R)-1-amino-3-(4-octylphenyl)cyclopentyl)methanol]: the Kp at 4 h in data set [1] (brain / whole blood, 30 mg/kg i.p., VPC4 + LPS group, read-out: Mean brain level relative to mean blood level) was 9.35; in data set [1] (brain / whole blood, 30 mg/kg, 30 mg/kg i.p., VPC4 group, read-out: Mean brain level relative to mean blood level), 8.97; in data set [1] (lung / whole blood, 30 mg/kg i.p., VPC4 + LPS group, read-out: Mean lung level relative to mean blood level), 33.2; in data set [1] (lung / whole blood, 30 mg/kg, 30 mg/kg i.p., VPC4 group, read-out: Mean lung level relative to mean blood level) it was 31.1; in data set [1] (lung / whole blood, 30 mg/kg, mice that received VPC4, 30 mg/kg i.p., read-out: Lung levels relative to blood) it was 32. For the same compound, the concentration at 4 h in data set [1] (brain, 30 mg/kg i.p., VPC4 + LPS group, read-out: Mean brain concentration) came to 162 µM; in data set [1] (brain, 30 mg/kg i.p., VPC4 group, read-out: Mean brain concentration), 142 µM; in data set [1] (lung, 30 mg/kg i.p., VPC4 + LPS group, read-out: Mean lung concentration), 576 µM; in data set [1] (lung, 30 mg/kg i.p., VPC4 group, read-out: Mean lung concentration), 490 µM; in data set [1] (whole blood, 30 mg/kg i.p. with LPS 1 mg/kg, cotreatment group, read-out: Mean whole blood concentration), 17.4 µM; in data set [1] (whole blood, 30 mg/kg i.p., drug-treated group, read-out: Mean whole blood concentration), 15.8 µM. Also, the “Brain levels relative to blood” value in data set [1] (mice that received VPC4, 30 mg/kg i.p., 4 h) is given as “approximately ninefold”. For the same compound, the “Lymphopenia when administered to mice” value with lymphocytes is recorded as “do not evoke lymphopenia”.
